Literature values, collected in patent US20220054558A1, “COMPOSITIONS COMPRISING BACTERIAL STRAINS” (4D Pharma Research Limited, priority 2018, published 2022).

Tested on: C. difficile
Settings: reference [19]

SMILES: CCCCC(=O)O [Valeric acid]
- viability of C. difficile: reduce the viability
